Assays:
[1] = Kinetic solubility of the compound in PBS buffer; type: physicochemical
[2] = target: Tumour suppressor p53/oncoprotein Mdm2 (Homo sapiens, UniProt Q00987); experiment: Inhibition of 6His-tagged MDM2 (1 to 118) interaction to FITC-tagged p53 (17 to 26) (unknown origin) after 30 mins by fluorescence polarization assay; type: protein assay
Sequence of Tumour suppressor p53/oncoprotein Mdm2 (P04637 whole entry): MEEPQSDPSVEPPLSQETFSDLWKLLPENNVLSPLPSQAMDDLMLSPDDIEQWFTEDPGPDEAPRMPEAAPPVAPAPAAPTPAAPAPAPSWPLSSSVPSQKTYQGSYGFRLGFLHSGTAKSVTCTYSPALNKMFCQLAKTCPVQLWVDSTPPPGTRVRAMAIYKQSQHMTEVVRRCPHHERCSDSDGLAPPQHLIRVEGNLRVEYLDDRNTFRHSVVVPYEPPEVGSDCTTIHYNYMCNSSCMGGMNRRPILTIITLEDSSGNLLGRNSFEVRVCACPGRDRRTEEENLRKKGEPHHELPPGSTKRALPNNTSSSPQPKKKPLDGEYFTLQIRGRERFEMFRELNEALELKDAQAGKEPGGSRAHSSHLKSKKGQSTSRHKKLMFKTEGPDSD
Sequence of Tumour suppressor p53/oncoprotein Mdm2 (Q00987 whole entry): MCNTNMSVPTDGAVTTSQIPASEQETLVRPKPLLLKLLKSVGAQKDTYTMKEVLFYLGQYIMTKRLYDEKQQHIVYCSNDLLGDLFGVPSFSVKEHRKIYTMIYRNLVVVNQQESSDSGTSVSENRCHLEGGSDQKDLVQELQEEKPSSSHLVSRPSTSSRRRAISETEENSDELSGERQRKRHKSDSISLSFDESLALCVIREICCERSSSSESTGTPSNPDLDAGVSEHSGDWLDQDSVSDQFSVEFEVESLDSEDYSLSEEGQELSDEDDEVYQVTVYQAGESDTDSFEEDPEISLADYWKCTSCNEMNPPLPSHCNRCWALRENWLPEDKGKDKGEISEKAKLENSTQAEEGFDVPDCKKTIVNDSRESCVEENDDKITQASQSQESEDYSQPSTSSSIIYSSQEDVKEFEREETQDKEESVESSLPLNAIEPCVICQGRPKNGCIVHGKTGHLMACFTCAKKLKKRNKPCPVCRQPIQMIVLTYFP

CCOc1ccc(CC(=O)O)cc1-c1cc(-c2ccccc2OCC)n(CCc2ccccc2)n1
Kinetic_solubility [1]: > 0.2 Ug/ml
IC50 [2]: 102 µM

CCOc1ccc(CCC(=O)O)cc1-c1cc(-c2ccc(F)cc2)n(Cc2ccccc2)n1
Kinetic_solubility [1]: < 0.015 Ug/ml
IC50 [2]: 101 µM

COc1ccc(CCC(=O)O)cc1-c1cc(-c2ccc(F)cc2)n(Cc2ccccc2)n1
Kinetic_solubility [1]: 0.066 Ug/ml
IC50 [2]: 17 µM

CCOc1ccc(C(=O)O)cc1-c1cc(-c2ccccc2OCC)n(CCc2ccccc2)n1
Kinetic_solubility [1]: 0.022 Ug/ml
IC50 [2]: 10.7 µM

CCOc1ccccc1-c1cc(-c2cc(C(=O)O)ccc2OC)nn1Cc1ccccc1
Kinetic_solubility [1]: 0.039 Ug/ml
IC50 [2]: 238 µM

CCOc1ccccc1-c1cc(-c2ccc(C(=O)O)cc2)nn1Cc1ccccc1
Kinetic_solubility [1]: 0.117 Ug/ml
IC50 [2]: 346 µM

COc1cccc(-c2cc(-c3cc(CC(=O)O)ccc3OCC(C)C)nn2Cc2ccccc2)c1OC
Kinetic_solubility [1]: > 0.2 Ug/ml
IC50 [2]: 120 µM

CCCOc1ccc(C(=O)O)cc1-c1cc(-c2ccccc2OCC)n(Cc2ccccc2)n1
Kinetic_solubility [1]: 0.096 Ug/ml
IC50 [2]: 68.8 µM

CCCCOc1ccc(C(=O)O)cc1-c1cc(-c2ccccc2OCC)n(CCc2ccccc2)n1
Kinetic_solubility [1]: 0.032 Ug/ml
IC50 [2]: 16.8 µM

CCOc1ccccc1-c1cc(-c2cc(C(=O)O)ccc2OC)nn1CCc1ccccc1
Kinetic_solubility [1]: > 0.2 Ug/ml
IC50 [2]: 232 µM

CCCCOc1ccc(CC(=O)O)cc1-c1cc(-c2ccccc2OCC)n(CCc2ccccc2)n1
Kinetic_solubility [1]: 0.096 Ug/ml
IC50 [2]: 54.1 µM

COc1ccc(C(=O)O)cc1-c1cc(-c2cccc(OC)c2OC)n(CCc2ccccc2)n1
Kinetic_solubility [1]: > 0.2 Ug/ml
IC50 [2]: 186 µM

CCCCOc1ccc(CC(=O)O)cc1-c1cc(-c2cccc(OC)c2OC)n(CCc2ccccc2)n1
Kinetic_solubility [1]: 0.117 Ug/ml
IC50 [2]: 116 µM

CCOc1ccccc1-c1cc(-c2cc(CC(=O)O)ccc2OCc2cccc(Cl)c2)nn1CCc1ccccc1
Kinetic_solubility [1]: < 0.015 Ug/ml
IC50 [2]: 249 µM

COc1ccc(CCC(=O)O)cc1-c1cc(-c2ccc(Cl)cc2)n(Cc2ccccc2)n1
Kinetic_solubility [1]: 0.019 Ug/ml
IC50 [2]: 86.6 µM

CCOc1ccccc1-c1cc(-c2cc(CC(=O)O)ccc2OCc2cccc(Cl)c2)nn1Cc1ccccc1
Kinetic_solubility [1]: < 0.015 Ug/ml
IC50 [2]: 54.4 µM

CCOc1ccc(C(=O)O)cc1-c1cc(-c2cccc(OC)c2OC)n(CCc2ccccc2)n1
Kinetic_solubility [1]: > 0.2 Ug/ml
IC50 [2]: 14 µM

COc1ccc(CCC(=O)O)cc1-c1cc(-c2ccc(Cl)cc2)n(CCc2ccccc2)n1
Kinetic_solubility [1]: 0.046 Ug/ml
IC50 [2]: 38.9 µM

CCOc1ccccc1-c1cc(-c2cc(CC(=O)O)ccc2OC)nn1CCc1ccccc1
Kinetic_solubility [1]: > 0.2 Ug/ml
IC50 [2]: 339 µM

COc1cccc(-c2cc(-c3cc(C(=O)O)ccc3OCC(C)C)nn2CCc2ccccc2)c1OC
Kinetic_solubility [1]: 0.056 Ug/ml
IC50 [2]: 8.22 µM

CCCOc1ccc(C(=O)O)cc1-c1cc(-c2cccc(OC)c2OC)n(Cc2ccccc2)n1
Kinetic_solubility [1]: > 0.2 Ug/ml
IC50 [2]: 79.3 µM

COc1cccc(-c2cc(-c3cc(CCC(=O)O)ccc3OCc3cccc(Cl)c3)nn2Cc2ccccc2)c1OC
Kinetic_solubility [1]: < 0.015 Ug/ml
IC50 [2]: 31.6 µM

O=C(O)Cc1ccc(OCc2ccccc2Cl)c(-c2cc(-c3ccc(F)cc3)n(Cc3ccccc3)n2)c1
Kinetic_solubility [1]: < 0.015 Ug/ml
IC50 [2]: 130 µM

CCOc1ccccc1-c1cc(-c2cc(CC(=O)O)ccc2OCC(C)C)nn1CCc1ccccc1
Kinetic_solubility [1]: 0.046 Ug/ml
IC50 [2]: 48.7 µM

CCOc1ccc(CCC(=O)O)cc1-c1cc(-c2cccc(OC)c2OC)n(Cc2ccccc2)n1
Kinetic_solubility [1]: > 0.2 Ug/ml
IC50 [2]: 353 µM

CCCOc1ccc(CC(=O)O)cc1-c1cc(-c2cccc(OC)c2OC)n(Cc2ccccc2)n1
Kinetic_solubility [1]: > 0.2 Ug/ml
IC50 [2]: 329 µM

CCOc1ccccc1-c1cc(-c2cc(CC(=O)O)ccc2OC)nn1Cc1ccccc1
Kinetic_solubility [1]: 0.138 Ug/ml
IC50 [2]: 288 µM

CCCOc1ccc(CC(=O)O)cc1-c1cc(-c2cccc(OC)c2OC)n(CCc2ccccc2)n1
Kinetic_solubility [1]: 0.117 Ug/ml
IC50 [2]: 60.6 µM

CCCOc1ccc(C(=O)O)cc1-c1cc(-c2cccc(OC)c2OC)n(CCc2ccccc2)n1
Kinetic_solubility [1]: 0.117 Ug/ml
IC50 [2]: 6.56 µM

CCCCOc1ccc(CC(=O)O)cc1-c1cc(-c2cccc(OC)c2OC)n(Cc2ccccc2)n1
Kinetic_solubility [1]: > 0.2 Ug/ml
IC50 [2]: 118 µM

CCOc1ccccc1-c1cc(-c2cc(C(=O)O)ccc2OCC(C)C)nn1CCc1ccccc1
Kinetic_solubility [1]: 0.015 Ug/ml
IC50 [2]: 14.2 µM

COc1ccc(CC(=O)O)cc1-c1cc(-c2cccc(OC)c2OC)n(Cc2ccccc2)n1
Kinetic_solubility [1]: > 0.2 Ug/ml
IC50 [2]: 967 µM

O=C(O)CCc1ccc(OCc2cccc(Cl)c2)c(-c2cc(-c3ccc(F)cc3)n(Cc3ccccc3)n2)c1
Kinetic_solubility [1]: < 0.015 Ug/ml
IC50 [2]: 51.9 µM

O=C(O)c1ccc(-c2cc(-c3ccc(F)cc3)n(CCc3ccccc3)n2)cc1
Kinetic_solubility [1]: 0.096 Ug/ml
IC50 [2]: 128 µM

COc1ccc(CCC(=O)O)cc1-c1cc(-c2cccc(OC)c2OC)n(Cc2ccccc2)n1
Kinetic_solubility [1]: 0.169 Ug/ml
IC50 [2]: 449 µM

CCOc1ccc(C(=O)O)cc1-c1cc(-c2cccc(OC)c2OC)n(Cc2ccccc2)n1
Kinetic_solubility [1]: 0.138 Ug/ml
IC50 [2]: 295 µM

CCOc1ccc(CCC(=O)O)cc1-c1cc(-c2ccccc2OCC)n(CCc2ccccc2)n1
Kinetic_solubility [1]: 0.102 Ug/ml
IC50 [2]: 105 µM

COc1ccc(CC(=O)O)cc1-c1cc(-c2ccc(F)cc2)n(Cc2ccccc2)n1
Kinetic_solubility [1]: > 0.2 Ug/ml
IC50 [2]: 595 µM

CCCCOc1ccc(C(=O)O)cc1-c1cc(-c2cccc(OC)c2OC)n(CCc2ccccc2)n1
Kinetic_solubility [1]: 0.066 Ug/ml
IC50 [2]: 14.2 µM

CCCOc1ccc(CC(=O)O)cc1-c1cc(-c2ccccc2OCC)n(CCc2ccccc2)n1
Kinetic_solubility [1]: 0.066 Ug/ml
IC50 [2]: 72 µM

COc1ccc(C(=O)O)cc1-c1cc(-c2cccc(OC)c2OC)n(Cc2ccccc2)n1
Kinetic_solubility [1]: > 0.2 Ug/ml
IC50 [2]: 1020 µM

COc1ccc(CCC(=O)O)cc1-c1cc(-c2cccc(OC)c2OC)n(CCc2ccccc2)n1
Kinetic_solubility [1]: > 0.2 Ug/ml
IC50 [2]: 436 µM

CCOc1ccc(CCC(=O)O)cc1-c1cc(-c2ccc(F)cc2)n(CCc2ccccc2)n1
Kinetic_solubility [1]: > 0.2 Ug/ml
IC50 [2]: 35.8 µM

COc1cccc(-c2cc(-c3cc(CCC(=O)O)ccc3OCc3cccc(Cl)c3)nn2CCc2ccccc2)c1OC
Kinetic_solubility [1]: < 0.015 Ug/ml
IC50 [2]: 34 µM

O=C(O)CCc1ccc(OCc2cccc(Cl)c2)c(-c2cc(-c3ccc(F)cc3)n(CCc3ccccc3)n2)c1
Kinetic_solubility [1]: < 0.015 Ug/ml
IC50 [2]: 47.8 µM

CCOc1ccccc1-c1cc(-c2cc(CCC(=O)O)ccc2OC)nn1CCc1ccccc1
Kinetic_solubility [1]: > 0.2 Ug/ml
IC50 [2]: 258 µM

CCOc1ccc(CC(=O)O)cc1-c1cc(-c2cccc(OC)c2OC)n(Cc2ccccc2)n1
Kinetic_solubility [1]: > 0.2 Ug/ml
IC50 [2]: 348 µM

COc1ccc(CC(=O)O)cc1-c1cc(-c2cccc(OC)c2OC)n(CCc2ccccc2)n1
Kinetic_solubility [1]: > 0.2 Ug/ml
IC50 [2]: 727 µM

CCOc1ccccc1-c1cc(-c2ccc(C(=O)O)cc2)nn1CCc1ccccc1
Kinetic_solubility [1]: > 0.2 Ug/ml
IC50 [2]: 91.2 µM

CCOc1ccccc1-c1cc(-c2cc(CCC(=O)O)ccc2OC)nn1Cc1ccccc1
Kinetic_solubility [1]: > 0.2 Ug/ml
IC50 [2]: 388 µM

COc1cccc(-c2cc(-c3cc(CC(=O)O)ccc3OCC(C)C)nn2CCc2ccccc2)c1OC
Kinetic_solubility [1]: 0.056 Ug/ml
IC50 [2]: 68.3 µM

CCOc1ccc(C(=O)O)cc1-c1cc(-c2ccccc2OCC)n(Cc2ccccc2)n1
Kinetic_solubility [1]: 0.066 Ug/ml
IC50 [2]: 111 µM
